This is an account of results in publication PMC10377586 (Biomolecules, 2023).

The target in one data set is T1, human A2B (hA2B) ARs (Homo sapiens, UniProt P29275).
T1 construct: expressed in transfected cells; host or cells: CHO cells (membranes)
T1 sequence (P29275 1-332): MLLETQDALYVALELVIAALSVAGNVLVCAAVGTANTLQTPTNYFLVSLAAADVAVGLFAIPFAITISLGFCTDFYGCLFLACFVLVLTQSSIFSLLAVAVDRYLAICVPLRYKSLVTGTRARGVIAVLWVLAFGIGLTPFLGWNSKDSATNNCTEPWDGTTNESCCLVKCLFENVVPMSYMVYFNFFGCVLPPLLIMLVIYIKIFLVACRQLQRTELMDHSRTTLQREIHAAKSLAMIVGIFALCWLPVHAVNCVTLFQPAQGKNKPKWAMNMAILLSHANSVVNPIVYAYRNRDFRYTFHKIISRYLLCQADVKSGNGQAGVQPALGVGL
Description: Radioligand binding [3H]PSB-603, CHO cell membranes. Particulars: for Ki: CHO cell membranes, read-out: hA2B [3H]PSB-603 Ki ± SEM; for inhibition at 1 µM: read-out: hA2B [3H]PSB-603 % inhibition ± SEM at 1 µM. The procedure: (§1) The final compounds were tested in radioligand binding assays to evaluate their affinity for all four ARs subtypes (see Table 2). Rat brain cortical membrane preparations were used as a source of rat A1 (rA1) ARs, and rat brain striatal membrane preparations served as a source of rat A2A (rA2A) ARs. For A2B- and A3AR assays, membrane preparations of Chinese hamster ovary (CHO) cells recombinantly expressing either human A2B (hA2B) or human A3 (hA3) ARs were employed.
(§2) Adenosine receptor radioligand binding assays were performed as previously described using rat brain cortical membrane preparations for A1 and rat brain striatal membrane preparations for A2A AR assays. Frozen rat brains (unstripped) were obtained from Pel Freez, Rogers, AR, USA. For assays at human AR subtypes, cell membranes of CHO cells recombinantly expressing the respective receptor were used. The following compounds were employed as radioligands: A1: [^3H]2-chloro-N^6-cyclopentyladenosine ([^3H]CCPA); A2A: [^3H]3-(3-hydroxypropyl)-7-methyl-8-(m-methoxystyryl)-1-propargylxanthine ([^3H]MSX-2); A2B: [^3H]8-(4-(4-(4-chlorophenyl)piperazine-1-sulfonyl)phenyl)-1-propylxanthine ([^3H]PSB-603); A3: [^3H]phenyl-8-ethyl-4-methyl-(8R)-4,5,7,8-tetrahydro-1H-imidazo[2,1-i]purine-5-one ([^3H]PSB-11). Initially, a single high concentration of compound was tested (1 µM). For potent compounds, full concentration–inhibition curves were determined using six to ten different concentrations of test compound spanning three orders of magnitude. At least three independent experiments were performed. Data were analyzed using GraphPad PRISM program version 4.0 or higher (Graph Pad, San Diego, CA, USA).

A further data set in a line: DPPH antioxidant assay. As to conditions: compound at 50 µM. The format is physicochemical. The text has this: The 2,2-diphenyl-1-picrylhydrazyl (DPPH) assay was used to determine the antioxidant properties of selected compounds using ascorbic acid, trolox, and quercetin as references. […] From a structural point of view, 21 and 22 share a common pyrimido[2,1-f]purinedione core with propyl or butyl substituents at the N1- and N3-position. Compounds 11i and 11l, containing hexyl or phenoxyethyl as N7-substituents, were the only structures in the groups of bicyclic xanthine derivatives that lacked antioxidant activity in the DPPH assay.
Antioxidant properties of considered structures were evaluated in DPPH test. The assay utilizes a stable free radical 2,2-diphenyl-1-picrylhydrazyl (DPPH). DPPH has a deep violet color in solution and strong absorption band at 520 nm. The antioxidant activity of the tested compounds was defined by their ability to induce the formation of the reduced form of DPPH. Upon reduction, DPPH color turned pale yellow, which manifested by decreased sample absorption at 520 nm and was measured in conducted experiments using EnSpire microplate reader (PerkinElmer). Antioxidant activity of xanthine derivatives and reference compounds was tested in triplicate at 50 µM concentration and normalized to the activity of reference radical scavenger—quercetin.
Figure 2 Antioxidant properties of xanthine derivatives evaluated in the DPPH test. All compounds were tested at 50 µM concentration. Results were normalized to the antioxidant activity measured for quercetin. ASC, ascorbic acid; TLX, trolox; QCT, quercetin.
Background: The DPPH test is a chemical assay of radical scavenging.

A further data set has as its target T2, rat A2A (rA2A) ARs (Rattus norvegicus, UniProt P30543).
T2 construct: rat brain striatal membrane preparations for A2A AR assays; tissue Pel Freez; host or cells: rat brain striatum membranes
Description: Radioligand binding [3H]MSX-2, rat brain striatal membranes. As to conditions: read-out: rA2A [3H]MSX-2 Ki ± SEM. The procedure:
as §1, §2

The next data set deals with T3, human A3 (hA3) ARs (Homo sapiens, UniProt P0DMS8).
T3 construct: expressed in transfected cells; host or cells: CHO cells (membranes)
T3 sequence (P0DMS8 1-318): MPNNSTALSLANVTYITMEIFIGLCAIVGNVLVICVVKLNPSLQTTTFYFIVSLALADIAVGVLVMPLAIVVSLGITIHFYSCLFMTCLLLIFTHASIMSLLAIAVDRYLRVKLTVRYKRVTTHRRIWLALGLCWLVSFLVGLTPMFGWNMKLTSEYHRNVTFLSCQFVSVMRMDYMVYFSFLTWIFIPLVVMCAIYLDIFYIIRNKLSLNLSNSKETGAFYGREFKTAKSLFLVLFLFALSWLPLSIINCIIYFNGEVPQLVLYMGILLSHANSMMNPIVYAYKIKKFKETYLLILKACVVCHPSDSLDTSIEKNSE
Description: Radioligand binding [3H]PSB-11, CHO cell membranes. As to conditions: for Ki: CHO cell membranes, read-out: hA3 [3H]PSB-11 Ki ± SEM; for inhibition at 1 µM: read-out: hA3 [3H]PSB-11 % inhibition ± SEM at 1 µM. The procedure:
as §1, §2

T2 sequence (P30543 whole entry): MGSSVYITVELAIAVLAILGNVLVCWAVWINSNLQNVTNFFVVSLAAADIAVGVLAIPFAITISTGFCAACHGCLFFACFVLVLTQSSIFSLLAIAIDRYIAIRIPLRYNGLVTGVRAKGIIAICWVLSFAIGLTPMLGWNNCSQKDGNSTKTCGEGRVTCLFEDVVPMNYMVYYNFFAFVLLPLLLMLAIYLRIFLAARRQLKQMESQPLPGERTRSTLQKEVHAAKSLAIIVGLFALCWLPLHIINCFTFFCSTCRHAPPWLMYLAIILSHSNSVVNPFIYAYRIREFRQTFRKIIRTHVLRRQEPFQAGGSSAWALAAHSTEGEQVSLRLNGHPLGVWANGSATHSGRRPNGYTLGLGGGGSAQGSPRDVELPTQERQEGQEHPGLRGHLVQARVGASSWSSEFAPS

In turn, `Cn1c(=O)c2c(nc(NCCc3ccc(O)c(O)c3)n2C)n(C)c1=O` [Compound 11a, 8-((3,4-Dihydroxyphenethyl)amino)-1,3,7-trimethyl-3,7-dihydro-1H-purine-2,6-dione] showed a melting point of 204 to 206 °C. Also, at human A2B (hA2B) ARs, the inhibitory constant (Ki) was over 1000 nM and the inhibition at 1 µM came to 20%. Besides, in the data set “DPPH antioxidant assay”, the “Antioxidative Activity [% of Quercetin Response at 50 µM ± SD]” value is reported as 79 ± 1 % of Quercetin Response. The Ki at rat A2A (rA2A) ARs is 370 ± 63 nM. On human A3 (hA3) ARs, the Ki was over 1000 nM and the inhibition at 1 µM was -1%.

Take `CCn1c(NCCc2ccc(O)c(O)c2)nc2c1c(=O)n(C)c(=O)n2C` [Compound 11b, 8-((3,4-Dihydroxyphenethyl)amino)-7-ethyl-1,3-dimethyl-3,7-dihydro-1H-purine-2,6-dione]: the melting point is 225 to 226 °C. In addition, at human A2B (hA2B) ARs, the Ki was over 1000 nM and the inhibition at 1 µM was -2%. In addition, the “Antioxidative Activity [% of Quercetin Response at 50 µM ± SD]” value in “DPPH antioxidant assay” was 75 ± 1 % of Quercetin Response. On rat A2A (rA2A) ARs, the Ki amounted to 672 ± 83 nM. On human A3 (hA3) ARs, the Ki was over 1000 nM and the inhibition at 1 µM is -5%.

As for `CCCn1c(NCCc2ccc(O)c(O)c2)nc2c1c(=O)n(C)c(=O)n2C` [Compound 11c, 8-((3,4-Dihydroxyphenethyl)amino)-1,3-dimethyl-7-propyl-3,7-dihydro-1H-purine-2,6-dione], the Ki at human A2B (hA2B) ARs is over 1000 nM; on rat A2A (rA2A) ARs, 4720 ± 930 nM; on human A3 (hA3) ARs, over 1000 nM. Besides, the inhibition at 1 µM is 6% at human A2B (hA2B) ARs and 5% at human A3 (hA3) ARs. Moreover, in “DPPH antioxidant assay”, the “Antioxidative Activity [% of Quercetin Response at 50 µM ± SD]” value is reported as 69 ± 1 % of Quercetin Response.

For the compound `CCCCn1c(NCCc2ccc(O)c(O)c2)nc2c1c(=O)n(C)c(=O)n2C` [Compound 11e, 7-Butyl-8-((3,4-dihydroxyphenethyl)amino)-1,3-dimethyl-3,7-dihydro-1H-purine-2,6-dione], the Ki on human A2B (hA2B) ARs was over 1000 nM; on rat A2A (rA2A) ARs, 1700 ± 260 nM; on human A3 (hA3) ARs, over 1000 nM. Further, the inhibition at 1 µM amounted to 14% at human A2B (hA2B) ARs and 0% at human A3 (hA3) ARs. In addition, the “Antioxidative Activity [% of Quercetin Response at 50 µM ± SD]” value in “DPPH antioxidant assay” is on record as 75 ± 1 % of Quercetin Response.

`CC(C)Cn1c(NCCc2ccc(O)c(O)c2)nc2c1c(=O)n(C)c(=O)n2C` [Compound 11f, 8-((3,4-Dihydroxyphenethyl)amino)-7-isobutyl-1,3-dimethyl-3,7-dihydro-1H-purine-2,6-dione]: the Ki on human A2B (hA2B) ARs is over 1000 nM; at rat A2A (rA2A) ARs, 6860 ± 770 nM; at human A3 (hA3) ARs it was over 1000 nM. Besides, the results for the inhibition at 1 µM at human A2B (hA2B) ARs and at human A3 (hA3) ARs were 1% and -6%, respectively. In “DPPH antioxidant assay”, the “Antioxidative Activity [% of Quercetin Response at 50 µM ± SD]” value is 57 ± 1 % of Quercetin Response.

With `CCC(C)n1c(NCCc2ccc(O)c(O)c2)nc2c1c(=O)n(C)c(=O)n2C` (centres unmarked) [Compound 11g, 7-(Sec-butyl)-8-((3,4-dihydroxyphenethyl)amino)-1,3-dimethyl-3,7-dihydro-1H-purine-2,6-dione], the Ki on human A2B (hA2B) ARs is over 1000 nM; on rat A2A (rA2A) ARs it was 8980 ± 150 nM; at human A3 (hA3) ARs, over 1000 nM. Besides, the inhibition at 1 µM is -5% at human A2B (hA2B) ARs and -4% at human A3 (hA3) ARs. Moreover, the “Antioxidative Activity [% of Quercetin Response at 50 µM ± SD]” value in the data set “DPPH antioxidant assay” is reported as 71 ± 1 % of Quercetin Response.

As to `CCCCCn1c(NCCc2ccc(O)c(O)c2)nc2c1c(=O)n(C)c(=O)n2C` [Compound 11h, 8-((3,4-Dihydroxyphenethyl)amino)-1,3-dimethyl-7-pentyl-3,7-dihydro-1H-purine-2,6-dione], the figures for the Ki at human A2B (hA2B) ARs, at rat A2A (rA2A) ARs and on human A3 (hA3) ARs were over 1000 nM, 2220 ± 260 nM and over 1000 nM, respectively. In addition, the inhibition at 1 µM was found to be 12% at human A2B (hA2B) ARs and 0% on human A3 (hA3) ARs. The “Antioxidative Activity [% of Quercetin Response at 50 µM ± SD]” value in “DPPH antioxidant assay” is listed as 79 ± 1 % of Quercetin Response.

In the case of `Cn1c(=O)c2c(nc(NCCc3ccc(O)c(O)c3)n2Cc2ccccc2)n(C)c1=O` [Compound 11j, 7-Benzyl-8-((3,4-dihydroxyphenethyl)amino)-1,3-dimethyl-3,7-dihydro-1H-purine-2,6-dione], the Ki at human A2B (hA2B) ARs is over 1000 nM; on rat A2A (rA2A) ARs it was 3600 ± 290 nM; on human A3 (hA3) ARs, over 1000 nM. Besides, the inhibition at 1 µM on human A2B (hA2B) ARs amounted to 31%; on human A3 (hA3) ARs it was 7%. For the same compound, the “Antioxidative Activity [% of Quercetin Response at 50 µM ± SD]” value in “DPPH antioxidant assay” is reported as 82 ± 1 % of Quercetin Response.

Turning to `CCCn1c(=O)c2c(nc(NCCc3ccc(O)c(O)c3)n2CCC)n(CCC)c1=O` [Compound 12, 8-((3,4-Dihydroxyphenethyl)amino)-1,3,7-tripropyl-3,7-dihydro-1H-purine-2,6-dione], the Ki is over 1000 nM on human A2B (hA2B) ARs, 833 ± 81 nM on rat A2A (rA2A) ARs and over 1000 nM at human A3 (hA3) ARs. The inhibition at 1 µM on human A2B (hA2B) ARs turned out to be 34%; on human A3 (hA3) ARs it was 25%. In addition, the “Antioxidative Activity [% of Quercetin Response at 50 µM ± SD]” value in “DPPH antioxidant assay” was 86 ± 3 % of Quercetin Response.

As for `CCCCn1c(=O)c2c(nc(NCCc3ccc(O)c(O)c3)n2CCC)n(CCCC)c1=O` [Compound 13, 1,3-Dibutyl-8-((3,4-dihydroxyphenethyl)amino)-7-propyl-3,7-dihydro-1H-purine-2,6-dione], the Ki on human A2B (hA2B) ARs was over 1000 nM; at rat A2A (rA2A) ARs, 1320 ± 250 nM; at human A3 (hA3) ARs it was over 1000 nM. For the same compound, the results for the inhibition at 1 µM at human A2B (hA2B) ARs and on human A3 (hA3) ARs were 31% and 17%, respectively. Further, the “Antioxidative Activity [% of Quercetin Response at 50 µM ± SD]” value in “DPPH antioxidant assay” is 61 ± 1 % of Quercetin Response.

In the case of `CCCn1c(=O)c2c(nc3n2CCCN3CCc2ccc(O)c(O)c2)n(CCC)c1=O` [Compound 21, 9-(3,4-Dihydroxyphenethyl)-1,3-dipropyl-6,7,8,9-tetrahydropyrimido[2,1-f]purine-2,4(1H,3H)-dione], the Ki on human A2B (hA2B) ARs was 371 ± 23 nM; at rat A2A (rA2A) ARs, 274 ± 81 nM; on human A3 (hA3) ARs, over 1000 nM. In addition, the “Antioxidative Activity [% of Quercetin Response at 50 µM ± SD]” value in the data set “DPPH antioxidant assay” is recorded as 13 ± 1 % of Quercetin Response. For the same compound, the inhibition at 1 µM at human A3 (hA3) ARs was 26%.

Regarding `CCCCn1c(=O)c2c(nc3n2CCCN3CCc2ccc(O)c(O)c2)n(CCCC)c1=O` [Compound 22, 1,3-Dibutyl-9-(3,4-dihydroxyphenethyl)-6,7,8,9-tetrahydropyrimido[2,1-f]purine-2,4(1H,3H)-dione], the results for the Ki at human A2B (hA2B) ARs, on rat A2A (rA2A) ARs and on human A3 (hA3) ARs were 175 ± 21 nM, 334 ± 52 nM and 676 ± 143 nM, respectively. Moreover, the “Antioxidative Activity [% of Quercetin Response at 50 µM ± SD]” value in “DPPH antioxidant assay” is on record as 26 ± 2 % of Quercetin Response.

The Ki is the equilibrium dissociation constant of an inhibitor or competing ligand from its target. Broadly, the inhibition is the relative decrease from the control value, in per cent. A word on the melting point: it is the temperature of the solid-liquid transition.
